Molecular target: T1, Recombinant human mPGES-1 (Homo sapiens, UniProt O14684)
T1 construct: made in house; host or cells: CHO cells (crude microsomal fractions)
T1 sequence (O14684 1-152): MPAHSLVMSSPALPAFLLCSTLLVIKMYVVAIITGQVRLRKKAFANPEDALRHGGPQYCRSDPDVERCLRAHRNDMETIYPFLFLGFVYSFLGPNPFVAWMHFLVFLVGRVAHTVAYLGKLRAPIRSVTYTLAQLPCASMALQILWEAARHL
Experiment: In-vitro screening of mPGES-1 inhibitors (inhibition of PGE2 formation from PGH2, HTRF detection)
Assay type: biochemical
Details: mPGES-1 enzyme; for inhibition at 1 µM: 1 μM test compound, read-out: Percentage inhibition at 1 μM; for inhibition at 1 µM / inhibition at 10 µM: crude microsomal fractions; for inhibition at 10 µM: 10 μM test compound, read-out: Percentage inhibition at 10 μM; for IC50: class symbols
In short: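 PGH2-to-PGE2 isomerization run for 1 min with 15 μM PGH2 after 10 min compound preincubation with microsomal enzyme (40–60 μg/mL) and 2.5 mM GSH, pH buffer 0.1 M potassium phosphate with EDTA. Stannous chloride quench, HTRF PGE2 readout, IC50 fitted against uninhibited reaction.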

SMILES | inhibition at 1 µM [%] | inhibition at 10 µM [%] | IC50 [nM]
CC(C)(C)C#Cc1ccc(-c2nn(-c3cc(CNC(=O)C(C)(C)C)c(F)cc3Cl)c(=O)[nH]2)cc1 [Example-137, N-(4-Chloro-2-fluoro-5-(4,5-dihydro-3-(4-(3,3-dimethylbut-1-ynyl)phenyl)-5-oxo-1,2,4-triazol-1-yl)benzyl)pivalamide] | 93.4 | 93.1 | < 50
CC(C)(C)C(=O)NCc1ccc(Cl)c(-c2nn(-c3ccc(F)c(Cl)c3)c(=O)[nH]2)c1 [Example-139, N-(4-Chloro-3-(1-(3-chloro-4-fluorophenyl)-4,5-dihydro-5-oxo-1H-1,2,4-triazol-3-yl)benzyl)pivalamide] | 93.9 | 99.1 | < 50
Cc1ccc(-n2nc(-c3cc(CNC(=O)C(C)(C)C)ccc3Cl)[nH]c2=O)cc1Cl [Example-140, N-(4-Chloro-3-(1-(3-chloro-4-methylphenyl)-4,5-dihydro-5-oxo-1H-1,2,4-triazol-3-yl)benzyl)pivalamide] | 97.4 | 98.1 | < 50
CC(C)(C)C(=O)NCc1ccc(Cl)c(-n2nc(-c3ccc(C#CC4CC4)cc3)[nH]c2=O)c1 [Example-141, N-(4-Chloro-3-(3-(4-(2-cyclopropylethynyl)phenyl)-4,5-dihydro-5-oxo-1,2,4-triazol-1-yl)benzyl)pivalamide] | 97.6 | 97.5 | < 50
CC(C)C(=O)NCc1ccc(Cl)c(-c2nn(-c3ccc(C(F)(F)F)cc3)c(=O)[nH]2)c1 [Example-144, N-(4-Chloro-3-(1-(4-(trifluoromethyl)phenyl)-4,5-dihydro-5-oxo-1H-1,2,4-triazol-3-yl)benzyl)isobutyramide] | 97.5 | 92.7 | < 50
CC(C)(C)C(=O)NCc1ccc(Cl)c(-n2nc(-c3ccc(C(F)(F)F)cc3)[nH]c2=O)c1 [Example-145, N-(4-Chloro-3-(3-(4-(trifluoromethyl)phenyl)-4,5-dihydro-5-oxo-1,2,4-triazol-1-yl)benzyl)pivalamide] | 94.2 | 98.9 | < 50
CC(C)(C)C(=O)NCc1ccc(Cl)c(-n2nc(-c3ccc(C(F)(F)F)c(F)c3)[nH]c2=O)c1 [Example-146, N-(4-Chloro-3-(3-(3-fluoro-4-(trifluoromethyl)phenyl)-4,5-dihydro-5-oxo-1,2,4-triazol-1-yl)benzyl)pivalamide] | 100 | 99.7 | < 50
CC(C)(C)C(=O)NCc1ccc(Cl)c(-n2nc(-c3ccc(F)c(C(F)(F)F)c3)[nH]c2=O)c1 [Example-148, N-(4-Chloro-3-(3-(4-fluoro-3-(trifluoromethyl)phenyl)-4,5-dihydro-5-oxo-1,2,4-triazol-1-yl)benzyl)pivalamide] | 98.9 | 97.8 | < 50
CC(C)C(=O)NCc1ccc(Cl)c(-n2nc(-c3ccc(C#CC(C)(C)C)c(F)c3)[nH]c2=O)c1 [Example-149, N-(4-Chloro-3-(3-(3-fluoro-4-(3,3-dimethylbut-1-ynyl)phenyl)-4,5-dihydro-5-oxo-1,2,4-triazol-1-yl)benzyl)isobutyramide] | 98.3 | 94.6 | < 50
CC(C)(C)C(=O)NCc1ccc(Cl)c(-n2nc(-c3ccc(CN4CCCC4)cc3)[nH]c2=O)c1 [Example-151, N-(4-Chloro-3-(4,5-dihydro-5-oxo-3-(4-((pyrrolidin-1-yl)methyl)phenyl)-1,2,4-triazol-1-yl)benzyl)pivalamide] | 65 | 95.9 | –
CC(C)(C)C(=O)NCc1ccc(Cl)c(-n2nc(-c3ccc(COCC(F)(F)F)cc3)[nH]c2=O)c1 [Example-152, N-(3-(3-(4-((2,2,2-Trifluoroethoxy)methyl)phenyl)-4,5-dihydro-5-oxo-1,2,4-triazol-1-yl)-4-chlorobenzyl)pivalamide] | 96 | 100 | < 50
CC(C)c1nnc(-c2ccc(-c3nn(-c4cc(CNC(=O)C(C)(C)C)ccc4Cl)c(=O)[nH]3)cc2)o1 [Example-153, N-(4-Chloro-3-(4,5-dihydro-3-(4-(5-isopropyl-1,3,4-oxadiazol-2-yl)phenyl)-5-oxo-1,2,4-triazol-1-yl)benzyl)pivalamide] | 93.9 | 99.7 | 50 to 100
Cc1cc(-n2nc(-c3cc(CNC(=O)C(C)C)ccc3Cl)[nH]c2=O)ccc1Cl [Example-155, N-(4-Chloro-3-(1-(4-chloro-3-methylphenyl)-4,5-dihydro-5-oxo-1H-1,2,4-triazol-3-yl)benzyl)isobutyramide] | 99.7 | 97.1 | < 50
CC(C)(C)C(=O)NCc1ccc(Cl)c(-c2nn(-c3cc(F)cc(C(F)(F)F)c3)c(=O)[nH]2)c1 [Example-156, N-(4-Chloro-3-(1-(3-fluoro-5-(trifluoromethyl)phenyl)-4,5-dihydro-5-oxo-1H-1,2,4-triazol-3-yl)benzyl)pivalamide] | 98.5 | 99.2 | < 50
CC(C)(C)C(=O)NCc1ccc(Cl)c(-c2nn(-c3ccc(Cl)c(C(F)(F)F)c3)c(=O)[nH]2)c1 [Example-157, N-(4-Chloro-3-(1-(4-chloro-3-(trifluoromethyl)phenyl)-4,5-dihydro-5-oxo-1H-1,2,4-triazol-3-yl)benzyl)pivalamide] | 98.5 | 96.5 | < 50
Cc1ccc(-n2nc(-c3cc(CNC(=O)C(C)(C)C)ccc3Cl)[nH]c2=O)cc1C(F)(F)F [Example-158, N-(4-Chloro-3-(1-(3-(trifluoromethyl)-4-methylphenyl)-4,5-dihydro-5-oxo-1H-1,2,4-triazol-3-yl)benzyl)pivalamide] | 99 | 99.7 | < 50

Second part, the compound after the results:

inhibition at 1 µM [%] | inhibition at 10 µM [%] | IC50 [nM] | SMILES
91.5 | 93.9 | < 50 | CC(C)(CF)C(=O)NCc1cc(-c2nn(-c3ccc(Cl)cc3)c(=O)[nH]2)c(Cl)cc1F [Example-134, N-(4-Chloro-5-(1-(4-chlorophenyl)-4,5-dihydro-5-oxo-1H-1,2,4-triazol-3-yl)-2-fluorobenzyl)-3-fluoro-2,2-dimethylpropanamide]
92.3 | 98.9 | < 50 | Cc1ccc(-n2nc(-c3cc(CNC(=O)C(C)(C)C)c(F)cc3Cl)[nH]c2=O)cc1Cl [Example-135, N-(4-Chloro-5-(1-(3-chloro-4-methylphenyl)-4,5-dihydro-5-oxo-1H-1,2,4-triazol-3-yl)-2-fluorobenzyl)pivalamide]
95.1 | 94.8 | < 50 | CC(C)(C)C(=O)NCc1cc(-n2nc(-c3ccc(C#CC4CC4)cc3)[nH]c2=O)c(Cl)cc1F [Example-136, N-(4-Chloro-5-(3-(4-(2-cyclopropylethynyl)phenyl)-4,5-dihydro-5-oxo-1,2,4-triazol-1-yl)-2-fluorobenzyl)pivalamide]
93.3 | 92.9 | < 50 | CC(C)(C)C(=O)NCc1ccc(Cl)c(-c2nn(-c3ccc(C(F)(F)F)nc3)c(=O)[nH]2)c1 [Example-138, N-(4-Chloro-3-(1-(6-(trifluoromethyl)pyridin-3-yl)-4,5-dihydro-5-oxo-1H-1,2,4-triazol-3-yl)benzyl)pivalamide]
97.2 | 94 | < 50 | CC(C)(C)C(=O)NCc1ccc(Cl)c(-c2nn(-c3cccc(C(F)(F)F)c3)c(=O)[nH]2)c1 [Example-142, N-(4-Chloro-3-(1-(3-(trifluoromethyl)phenyl)-4,5-dihydro-5-oxo-1H-1,2,4-triazol-3-yl)benzyl)pivalamide]
99.2 | 90.7 | < 50 | CC(C)C(=O)NCc1ccc(Cl)c(-n2nc(-c3ccc(C#CC(C)(C)C)cc3)[nH]c2=O)c1 [Example-143, N-(4-Chloro-3-(4,5-dihydro-3-(4-(3,3-dimethylbut-1-ynyl)phenyl)-5-oxo-1,2,4-triazol-1-yl)benzyl)isobutyramide]
98.6 | 97.6 | < 50 | CC(C)(C)C(=O)NCc1ccc(Cl)c(-n2nc(-c3ccc(Cl)c(C(F)(F)F)c3)[nH]c2=O)c1 [Example-147, N-(4-Chloro-3-(3-(4-chloro-3-(trifluoromethyl)phenyl)-4,5-dihydro-5-oxo-1,2,4-triazol-1-yl)benzyl)pivalamide]
98.4 | 99.5 | < 50 | CC(C)C(=O)NCc1ccc(Cl)c(-n2nc(-c3ccc(C#CC4CC4)c(F)c3)[nH]c2=O)c1 [Example-150, N-(4-Chloro-3-(3-(4-(2-cyclopropylethynyl)-3-fluorophenyl)-4,5-dihydro-5-oxo-1,2,4-triazol-1-yl)benzyl)isobutyramide]
95.2 | 100 | < 50 | Cc1cc(-n2nc(-c3cc(CNC(=O)C(C)(C)C)ccc3Cl)[nH]c2=O)ccc1Cl [Example-154, N-(4-Chloro-3-(1-(4-chloro-3-methylphenyl)-4,5-dihydro-5-oxo-1H-1,2,4-triazol-3-yl)benzyl)pivalamide]
75.4 | 96.8 | > 100 | Cc1cc(C(F)(F)F)ccc1-n1nc(-c2cc(CNC(=O)C(C)(C)C)ccc2Cl)[nH]c1=O [Example-159, N-(4-Chloro-3-(1-(4-(trifluoromethyl)-2-methylphenyl)-4,5-dihydro-5-oxo-1H-1,2,4-triazol-3-yl)benzyl)pivalamide]
